Results reported in PMC9404711 (Antibiotics, 2022).
Where two headings read alike, the source gives them in different places. Non-standard residues stand in square brackets, D forms with d. Residues, ends and D or L forms follow the SMILES beside them.

Assays:
[1] = tested on: colistin-susceptible strain A. baumannii ATCC 19606; details: at 4 × MIC and above; cited from earlier work
[2] = tested on: A. baumannii (ATCC 19606); format: cell-based, Acinetobacter baumannii; details: A. baumannii ATCC 19606, MHB-II, 37 °C, 18–24 h, triplicate
Method: (§1) The following bacteria were grown in cation-adjusted Muller-Hinton broth at 37 °C with shaking: A. baumannii (ATCC 19606), E. coli (ATCC 25922), K. pneumoniae (ATCC 13883), P. aeruginosa (ATCC 27853), and S. aureus (ATCC 29213).
(§2) The MIC experiments were performed in triplicate, as described in Jensen et al.. Briefly, all peptide stock solutions were prepared by dissolving each peptide in Milli-Q water to obtain a concentration of 10 mg/mL. A bacterial concentration of 10^6 CFU/mL was obtained through the dilution of an overnight culture (MHB-II medium). When the overnight culture was prepared, the OD was measured using a spectrophotometer and when an OD value between 0.2 and 0.4 was obtained, the culture was diluted to OD = 0.002. The MIC determination was carried out in 96-well polypropylene microtitre plates. […] A final bacterial inoculum of 5 × 10^5 CFU/mL per well was obtained by adding 50 μL bacterial suspension to the microtiter plates. The plates were incubated at 37 °C for 18–24 h. To verify the CFU, 10 μL of bacteria suspension was transferred to 990 μL 0.9 % saline solution, from which a 10-fold dilution was carried out. Then, 100 μL of the dilution was plated on an LB plate and left for bacterial growth overnight at 37 °C. Colistin and vancomycin were used as the positive controls.

[3] = tested on: K. pneumoniae (ATCC 13883); format: cell-based, Klebsiella pneumoniae; details: K. pneumoniae ATCC 13883, MHB-II, 37 °C, 18–24 h, triplicate
Method: as §1, §2

[4] = tested on: P. aeruginosa (ATCC 27853); format: cell-based, Pseudomonas aeruginosa; details: P. aeruginosa ATCC 27853, MHB-II, 37 °C, 18–24 h, triplicate
Method: as §1, §2

[5] = Hydrophobicity by analytical RP-HPLC (%B at elution); format: physicochemical; details: chromatographic, analytical reversed-phase HPLC, Waters Symmetry C18 5 μm 4.6 × 250 mm; A: H2O + 0.1% TFA, B: 90:10 ACN-H2O + 0.1% TFA
Method: Peptide purity was determined as described previously by analytical RP-HPLC using a Waters 717 plus Autosampler, In-line Degasser AF, 600 Controller, and 2996 Photodiode Array Detector; the column used was a Waters Symmetry C18 column (5 μm, 4.6 mm × 250 mm, Milford, MA, USA). An aqueous acetonitrile (ACN) gradient with 0.1% TFA added (mixing eluent A: H2O + 0.1% TFA and eluent B: 90:10 ACN-H2O + 0.1% TFA) was employed using milli-Q water. Preparative RP-HPLC was performed by using a Waters XSelect Peptide CSH C18 OBDTM column (5 μm, 19 mm × 250 mm, Milford, MA, USA) with the same eluents as for analytical HPLC.
*Hydrophobicity as indicated by the percentage of mobile phase B (%B) at the peak elution time on analytical

S. aureus (ATCC 29213) = assay: MIC determination, broth microdilution; format: cell-based, Staphylococcus aureus; details: S. aureus ATCC 29213, MHB-II, 37 °C, 18–24 h, triplicate
Method: as §1, §2

E. coli (ATCC 25922) = format: cell-based, Escherichia coli; details: E. coli ATCC 25922, MHB-II, 37 °C, 18–24 h, triplicate
Method: as §1, §2

human erythrocytes = details: 150 μM peptide; 0.5% (v/v) red blood cell suspension in PBS, 1 h at 37 °C, absorbance 414 nm; melittin positive control, PBS negative control; three wells
Method: PBS served as the negative control and 5 μM melittin served as the positive control. All melittin solutions were prepared in Protein LoBind Eppendorf tubes to prevent the adsorption of melittin to the inner surface of the tubes.
Preparation of peptide solutions and melittin: A 5 μM melittin solution in PBS was prepared the day before the hemolysis experiment. First, 150 μL of this solution was transferred to each of the positive control wells and stored in the fume hood to coat the wells. On the day of the experiment, the melittin solution was discarded and the wells were washed with 3 × PBS. A 2.5 μM melittin solution in PBS was prepared and 75 μL was transferred to the wells. PBS (150 μL) was used as the negative control. A solution of each peptide was prepared by dissolving the peptide in 0.5 mL PBS to obtain a concentration of 300 μM. Each peptide solution (150 μL) was transferred to the wells in three wells each in row A, and the plate was diluted down.
Preparation of the red blood cell suspension: 1 mL of type O- whole blood in citrate was transferred to a cryotube. The whole blood was washed with 3 × PBS; adding 3, 3, and 4 mL of PBS, respectively. In between, the blood was centrifuged for 8 min (3000, 3000, and 4000 rpm, respectively) and the supernatant was removed after each centrifugation. A 0.5% (v/v) blood suspension was prepared by adding 40 μL of the washed blood cells to 8 mL of PBS. Then, 75 μL of the red blood cell suspension was transferred to each well and mixed gently. The plate was sealed and incubated for 1 h at 37 °C. After incubation, the plate was centrifuged at 4000 rpm for 10 min. Afterwards, 60 μL of the supernatant from each well was quickly transferred to an ELISA plate.
The absorbance was determined at 414 nm, and Equation (1) below was used to calculate the hemolytic activity of the peptides.

E. coli = assay: Time-kill assay; format: cell-based, Escherichia coli; details: start 5 × 10^5 CFU/mL, MHB-II 37 °C, n = 3
Method: The limit of detection was set to 10 CFU/mL, corresponding to a single viable colony after the overnight incubation of 100 μL bacteria suspension on an agar plate.
An overnight culture (MHB-II media) of E. coli was diluted 1:100 in preheated MHB-II, placed in a water bath (37 °C), and allowed to grow until OD600 = 0.2–0.4 was reached. The bacterial suspension was then diluted 1:10 in 25 mL preheated MHB-II, placed in a water bath (37 °C), and then allowed to grow until an OD = 0.2 was reached. […] At time points 0, 1, 3, 5, and 24 h, 250 μL of each sample suspension were transferred to a 0.9 % saline solution in a 1-mL Eppendorf tube. The bacterial cells were washed twice in 0.9% saline, spun down (10,000× g for 5 min) and resuspended in 250 μL 0.9% saline. Then, 10-fold dilution series were prepared and aliquots of 10 μL were spotted onto LB Agar. In addition, 100 μL of undiluted bacterial suspension (except the control sample) was plated out on a separate LB plate. All of the plates were incubated (37 °C) overnight and the results were read after incubation.

| SMILES | number of CFU in time-kill [1] | MIC AB ([2]; inoculum 5 × 10^5 CFU/mL) | MIC AB ([2]; value in brackets) | MIC KP ([3]; inoculum 5 × 10^5 CFU/mL) | MIC KP ([3]; value in brackets) | MIC PA ([4]; inoculum 5 × 10^5 CFU/mL) | MIC PA ([4]; value in brackets) | %B (hydrophobicity: percentage of mobile phase B at the peak elution time) [5] | MIC SA (S. aureus (ATCC 29213); inoculum 5 × 10^5 CFU/mL) | MIC SA (S. aureus (ATCC 29213); value in brackets) | MIC EC (E. coli (ATCC 25922); inoculum 5 × 10^5 CFU/mL) | MIC EC (E. coli (ATCC 25922); value in brackets) | % hemolysis of human erythrocytes (human erythrocytes) | viable cells after 24 h (E. coli; 3 × MIC (12 μg/mL)) | viable cells after 24 h (E. coli; 5 × MIC (20 μg/mL)) |
| --- | --- | --- | --- | --- | --- | --- | --- | --- | --- | --- | --- | --- | --- | --- | --- |
| CC[C@@H](C)[C@@H](NC(=O)[C@@H](CCCCN)NC(=O)[C@@H](CCCCN)NC(=O)[C@@H](Cc1ccccc1)NC(=O)[C@@H](CC(C)C)NC(=O)[C@@H](CCCCN)NC(=O)[C@H](N)CCCCN)C(=O)N[C@H](CC(C)C)C(=O)N[C@H](CCCNC(=N)N)C(=O)N[C@H](Cc1ccc(O)cc1)C(=O)N[C@H](CC(C)C)C(N)=O [BP214, reference compound] (H-[dK][dK][dL][dF][dK][dK][dI][dL][dR][dY][dL]-NH2; N-terminus assumed) | below the detection level | 2 µg/mL | 1.4 µM | 2 µg/mL | 1.4 µM | 4 µg/mL | 2.8 µM | 50.8 %B | 8 µg/mL | 5.5 µM | 4 µg/mL | 2.8 µM |  |  |  |
| CC[C@@H](C)[C@H]1NC(=O)CN(C(=O)[C@@H](CCCCN)NC(=O)[C@@H](CCCCN)NC(=O)[C@@H](Cc2ccccc2)NC(=O)[C@@H](CC(C)C)NC(=O)[C@@H](CCCCN)NC(=O)[C@H](N)CCCCN)CCCC[C@H](C(N)=O)NC(=O)[C@@H](Cc2ccc(O)cc2)NC(=O)[C@@H](CCCNC(=N)N)NC(=O)[C@@H](CC(C)C)NC1=O [compound 9] |  | > 64 µg/mL | > 42.6 µM | > 64 µg/mL | > 42.6 µM | > 64 µg/mL | > 42.6 µM | 46.6 %B | > 64 µg/mL | > 42.6 µM | > 64 µg/mL | > 42.6 µM | 3% |  |  |
| CCCCCCCCCC(=O)N[C@H](CCCCN)C(=O)N[C@H](CCCCN)C(=O)N[C@H](CC(C)C)C(=O)N[C@H](Cc1ccccc1)C(=O)N[C@H](CCCCN)C(=O)N[C@H](CCCCN)C(=O)N[C@@H](C(=O)N[C@H](CC(C)C)C(=O)N1CCCC[C@H](C(N)=O)NC(=O)[C@@H](Cc2ccc(O)cc2)NC(=O)[C@@H](CCCNC(=N)N)NC(=O)C1)[C@H](C)CC [compound 10] |  | 4 µg/mL | 2.4 µM | 8 µg/mL | 4.8 µM | 4 µg/mL | 2.4 µM | 62.7 %B | 4 µg/mL | 2.4 µM | 4 µg/mL | 2.4 µM | 81% |  |  |
| CCCCCCCCCC(=O)N[C@H](CCCCN)C(=O)N[C@H](CCCCN)C(=O)N[C@H](CC(C)C)C(=O)N[C@H](Cc1ccccc1)C(=O)N[C@H](CCCCN)C(=O)N[C@H](CCCCN)C(=O)N[C@@H](C(=O)N1CCCC[C@H](C(N)=O)NC(=O)[C@@H](Cc2ccc(O)cc2)NC(=O)[C@@H](CCCNC(=N)N)NC(=O)[C@@H](CC(C)C)NC(=O)C1)[C@H](C)CC [compound 13] |  | 2 µg/mL | 1.2 µM | 16 µg/mL | 9.6 µM | 8 µg/mL | 4.8 µM | 60.9 %B | 8 µg/mL | 4.8 µM | 4 µg/mL | 2.4 µM |  | 10^3 CFU/mL | 10^2 CFU/mL |
| CCCCCCCCCCCCCC(=O)N[C@H](CCCCN)C(=O)N[C@H](CCCCN)C(=O)N[C@H](CC(C)C)C(=O)N[C@H](Cc1ccccc1)C(=O)N[C@H](CCCCN)C(=O)N[C@H](CCCCN)C(=O)N[C@@H](C(=O)N1CCCC[C@H](C(N)=O)NC(=O)[C@@H](Cc2ccc(O)cc2)NC(=O)[C@@H](CCCNC(=N)N)NC(=O)[C@@H](CC(C)C)NC(=O)C1)[C@H](C)CC [compound 15] |  | 4 µg/mL | 2.3 µM | 16 µg/mL | 9.3 µM | 8 µg/mL | 4.6 µM | 78.5 %B | 4 µg/mL | 2.3 µM | 4 µg/mL | 2.3 µM | 83% |  |  |
| CCCCCCCCCC(=O)N[C@H](CCCCN)C(=O)N[C@H](CCCCN)C(=O)N[C@H](CC(C)C)C(=O)N[C@H](Cc1ccccc1)C(=O)N[C@H](CCCCN)C(=O)N[C@H](CCCCN)C(=O)N1CCCC[C@H](C(N)=O)NC(=O)[C@@H](Cc2ccc(O)cc2)NC(=O)[C@@H](CCCNC(=N)N)NC(=O)[C@@H](CC(C)C)NC(=O)[C@@H]([C@H](C)CC)NC(=O)C1 [compound 16] |  | 4 µg/mL | 2.4 µM | 16 µg/mL | 9.7 µM | 8 µg/mL | 4.8 µM | 61.3 %B | 4 µg/mL | 2.4 µM | 8 µg/mL | 4.8 µM | 59% |  |  |
